Entries after “also recorded” stand apart in the source; their conditions may differ. Starred links: 1 amine or outer side, 2 acyl side, 3 side chain; linkers in the order of their positions; H or OH if unused. Positions of bridges follow the written chain, without caps; N, C: chain ends. Non-standard residues stand in square brackets, D forms with d. Residues, ends and D or L forms follow the SMILES beside them. Chains are numbered I, II in the order given. Actinocin(9to1) = Cc1c2oc3c(C)ccc(C(=O)[*:1])c3nc-2c(C(=O)[*:2])c(N)c1=O; NMeV = CN[C@H](C(=O)O)C(C)C; Nle = CCCC[C@H](N)C(=O)O; Sar = CNCC(=O)O
B1: interleukin 1-α: interleukin 1-α (protein, UniProt P01583 113-271, looked up)
Interleukin-1 alpha: SAPFSFLSNVKYNFMRIIKYEFILNDALNQSIIRANDQYLTAAALHNLDEAVKFDMGAYKSSKDDAKITVILRISKTQLYVTAQDEDQPVLLKEMPEIPKTITGSETNLLFFWETHGTKNYFTSVAHPNLFIATKQDYWVCLAGGPPSITDFQILENQA

Key:
[1] = system: ERCC1; details: human ovarian cancer cells after cisplatin exposure; cited from earlier work
[2] = system: OPN promoter; assay: OPN promoter luciferase reporter assay in melanoma cell lines; format: cell-based, human; details: MDA-MB-435, MCC012A, MCC012F
Experimental: Empty pGL3 vector was used as control. Hedgehog ligands were added to the well 6 h prior to harvesting the cells (approximately 33 hr of initiation of transfection) for assay. Readings were normalized to total protein content. Each parameter was studied in triplicate and the experiment repeated at least 3 times. The data are represented as percent luciferase activity, which was derived as a percent of the relative light units in treated groups compared with the untreated groups.

[3] = system: Gli1; assay: GLI1 silencing by shRNA constructs in MDA-MB-435 cells, Western blot; format: cell-based, human
Experimental: To evaluate the functional effects of active Hedgehog signaling stable cell lines that were knocked down for GLI1 expression by RNA interference were generated. The efficacy of three shRNA constructs for silencing GLI1 expression was assessed.
Generation of Stable Transfectants—Endogenous GLI1 from MDA-MB-435 cells was silenced using shRNAs (short hairpin RNA) cloned into pSuperior.neo+gfp plasmid (OligoEngine, Seattle, Wash.) (TABLE 1). Introduction of double-stranded RNA has proven to be a powerful tool to suppress gene expression through a process known as RNA interference (P. A. Sharp, Genes Dev. 13, 139 (1999)). However, in some mammalian cells this can provoke a strong cytotoxic response (T. Hunter, T. Hunt, R. J. Jackson, H. D. Robertson, J. Biol. Chem. 250, 409 (1975)). This non-specific effect can be circumvented by use of synthetic short [21- to 22-nucleotide (nt)] interfering RNAs (siRNAs), which can mediate strong and specific suppression of gene expression (S. M. Elbashir et al., Nature 411, 494 (2001)). shRNAs included a target sequence sense strand, a short hairpin, and a target sequence antisense strand.
Western Blotting Analysis—Whole cell lysates were collected in Nonidet P-40 buffer (150 mM NaCl, 50 mM Tris, 1% Nonidet P-40). […] Secreted OPN was assessed by loading an equal quantity of protein from the serum-free conditioned medium. […]

[4] = system: RAW264.7 cells; assay: Osteoclast differentiation, TRAP assay, RAW264.7; format: cell-based, murine; details: DM supplemented with SHH (100 nM) or OPN (100 ng/ml) vs DM alone
Experimental: Cell lines—Human metastatic breast cancer cells, MDA-MB-231, were cultured in Dulbecco's Modified Eagle's Medium (DMEM/F12; Invitrogen, Carlsbad, Calif.), supplemented with 2 mM L-glutamine, 1 mM sodium pyruvate, 0.02 mM non-essential amino acids, 5% fetal bovine serum, FBS (Atlanta Biologicals, Norcross, Ga.), without antibiotics or antimycotics (cDME/F12). SUM1315 and SUM159 cells (DiMeo, T. A., et al. (2009) Cancer Res 69, 5364-5373) (Asterand, Detroit, Mich.) were cultured in DMEM/F12 supplemented with […] insulin, 5% FBS (Atlanta Biologicals) and either 10 ng/ml EGF or 1 ng/ml hydrocortisone, without antibiotics or antimycotics. The SUM1315 cells are derived from a metastasis in a patient with infiltrating ductal carcinoma; SUM159 cells were derived from a primary breast tumor with metaplastic ccarcinoma. RAW264.7 (ATCC, TIB 71) cells, a murine pre-osteoclastic line capable of differentiation and mineralization in culture (in presence of RANKL and MCSF), were grown in DMEM with L-glutamine (ATCC, 30-2002) supplemented with 10% FBS. A 2× differentiation medium (DM) was formulated for the RAW 264.7 cells comprising RAW264.7 growth medium supplemented with 20% FBS, RANKL (100 ng/ml) and M-CSF (40 ng/ml) (Matsubara, T., et al. J Bone Miner Res 25, 1068-1076). Conditioned media was harvested from breast cancer cells and mixed in a 1:1 ratio with double strength differentiation medium to assess the effect on osteoclast differentiation. 1×DM was used as control or wherever SHH (R & D Systems, Minneapolis, Minn.) or OPN (R & D Systems) was used alone. The medium on the RAW264.7 cells was replenished every 48 hours. In order to assess the effect of secreted Hh ligands, the neutralizing 5E1 antibody was used (Developmental Studies Hybridoma Bank, at the University of Iowa, Iowa). The amount of 5E1 antibody used for the studies was determined following titration of the antibody with respect to its effects on osteoclast differentiation. Medium was supplemented with 5E1 (2.5 μg/ml) and was changed on alternate days until the end of the experiment. The effect of OPN on osteoclast activity was assessed by transfecting an OPN shRNA-expressing construct on day 6 post-induction of differentiation. Fresh DM was added the following day and cells were allowed to grow for another 12 hours before termination of experiment. GLI1 expression was silenced in the SUM1315 cells using shRNA targeting GLI1 into pSuperior. gfp+neo (Oligoengine, Wash., USA). […]
Osteoclast differentiation and activity assays—Tartarate-resistant acid phosphatase (TRAP) assay was conducted for RAW 264.7 following the manufacturer's protocol (Sigma, St. Louis, Mo.). […] The percentage of area resorbed was calculated using the NIS-Elements BR. […]

[5] = system: RAW264.7 cells; assay: Osteoclast resorption activity, OAAS plates; format: cell-based, murine; details: DM supplemented with SHH (100 nM) or OPN (100 ng/ml)
Experimental: Osteoclast differentiation and activity assays—Tartarate-resistant acid phosphatase (TRAP) assay was conducted for RAW 264.7 following the manufacturer's protocol (Sigma, St. Louis, Mo.). This assay was indicative of the extent of differentiation. OAAS plates (Osteogenic Core Technologies, Choongnam, Republic of Korea) were utilized to measure osteoclastic activity. RAW 264.7 cells (25×103) were inoculated in 48-well plates. Cells were treated with serum-free conditioned media from breast cancer cells or 100 nM SHH or 100 ng/ml OPN on the following day. Media was changed every two days and the experiments were terminated either on day 6 (day 7 for knockdown experiments, with transfections being done on the sixth day). At the completion, cells were detached with 5% sodium hypochlorite and the wells were observed under a Nikon Eclipse TS 100 microscope at 10× magnification. […] The percentage of area resorbed was calculated using the NIS-Elements BR. 3.1 software.

Molecule	effect on ERCC1 up-regulation [1]	also measured
CC[C@H](C)[C@@H]1NC(=O)CNC(=O)[C@@H]2Cc3c([nH]c4cc(O)ccc34)[S+]([O-])C[C@@H](NC(=O)CNC1=O)C(=O)N[C@@H](CC(N)=O)C(=O)N1C[C@H](O)C[C@H]1C(=O)N[C@@H]([C@@H](C)[C@@H](O)CO)C(=O)N2 (stereo in doubt) [α-amanitin]	blunted ERCC1 up-regulation	–
CCCC[C@@H](C=O)NC(=O)[C@H](CC(C)C)NC(=O)[C@H](CC(C)C)NC(C)=O [N-acetyl-leucyl-leucyl-norleucinal] (Ac-Leu-Leu-[Nle]-aldehyde)	blunted ERCC1 up-regulation	–
Cc1cc(C)c(/C=C2\C(=O)Nc3ccccc32)[nH]1 [SU5416]	blunted ERCC1 up-regulation	–
Cc1c2oc3c(C)ccc(C(=O)N[C@@H]4C(=O)N[C@H](C(C)C)C(=O)N5CCC[C@H]5C(=O)N(C)CC(=O)N(C)[C@@H](C(C)C)C(=O)O[C@@H]4C)c3nc-2c(C(=O)N[C@@H]2C(=O)N[C@H](C(C)C)C(=O)N3CCC[C@H]3C(=O)N(C)CC(=O)N(C)[C@@H](C(C)C)C(=O)O[C@@H]2C)c(N)c1=O [actinomycin D] (I: T[dV]P[Sar][NMeV] / II: T[dV]P[Sar][NMeV]; ester I:1-I:C, II:1-II:C; linker I:N-II:N via Actinocin(9to1))	blunted ERCC1 up-regulation	–
[Cr] [chromium]	blunted ERCC1 up-regulation	–
C[C@@H]1C[C@@H]([C@H](O)CC2CC(=O)NC(=O)C2)C(=O)[C@@H](C)C1 [cycloheximide]	blunted ERCC1 up-regulation	–
CO[C@H]1[C@@H](OC)C[C@H](C)[C@@H](OC)C2=CC(=O)C=C(NC(=O)/C(C)=C/C=C\[C@H](OC)[C@@H](OC(N)=O)/C(C)=C/[C@@H]1C)C2=O [herbimycin A]	blunted ERCC1 up-regulation	–
CC(=O)N[C@@H](CSC(=O)[C@]1([C@@H](O)C(C)C)NC(=O)[C@H](C)[C@@H]1O)C(=O)O [lactacystin]	blunted ERCC1 up-regulation	–
[Pt] [platinum]	blunted ERCC1 up-regulation	–
C[C@H]1CC[C@]2(NC1)O[C@H]1C[C@H]3[C@@H]4CC[C@H]5C[C@@H](O)CC[C@]5(C)[C@H]4CC[C@]3(C)[C@H]1[C@@H]2C [tomatidine]	–	OPN promoter activity [2]: had no effect on the promoter activity; OPN promoter activity ([2]; listed as Tomatidine): had no effect on the promoter activity of OPN
GLI1 shRNA-2: shRNA construct targeting GLI1 mRNA sequence TCATCAACTCGCGATGCAC, position 325 (target site or template, no part of the molecule)	–	GLI1 silencing ([3]; shRNA cloned into pSUPERIOR): effective at silencing GLI1; also recorded: more effective GLI1 silencing; OPN expression ([3]; shRNA-transfected cells): decreased OPN expression
OPN: recombinant human osteopontin (R & D Systems)	–	numbers of TRAP stained multinucleate cells [4]: significant (p<0.005) increase; osteoclast activity (area resorbed) [5]: notably enhances (p<0.001) osteoclast activity
B1	blunted ERCC1 up-regulation	–

Source: patent US9464291B2, “Methods and compositions for the treatment of cancer” (University of South Alabama, priority 2012, dated 2016)
